Laboratory results from PMC6163080 (Journal of chromatography. B, Analytical technologies in …, 2018).

Tests used:
[1] = Stability of CLBQ14 in rat urine samples; assay type: in vitro ADME, Sprague Dawley rat
MtMetAP1c = conditions: high-throughput screening; ref [2], [17]; cited from earlier work
[2] = Stability of CLBQ14 in rat plasma samples; assay type: in vitro ADME, Sprague Dawley rat
aged non-growing Mtb = conditions: in vitro; ref [2]; cited from earlier work
[3] = Pharmacokinetic study, single IV bolus in adult male Sprague Dawley rats; assay type: in vivo; conditions: for AUC(0-inf) / C0 / clearance / half-life / Vd: male, Sprague Dawley, rat, plasma, iv
MtMetAP1a = conditions: high-throughput screening; ref [2], [17]; cited from earlier work
human MetAPs = conditions: in vitro; ref [2]; cited from earlier work
replicating Mtb = conditions: in vitro; ref [2]; cited from earlier work
[4] = Sprague Dawley, rat, Freeze-thaw cycle stability, mean recovery ± SD
[5] = Sprague Dawley, rat, Processed sample or auto-sampler stability, mean recovery ± SD, No IS
[6] = Sprague Dawley, rat, Processed sample or auto-sampler stability, mean recovery ± SD, With IS
[7] = Sprague Dawley, rat, Short-term (bench-top) stability, mean recovery ± SD
[8] = 2 mg/kg single IV bolus, male SD rats, n = 4, mean ± SD
[9] = 5 mg/kg single IV bolus, male SD rats, n = 3, mean ± SD
[10] = 10 mg/kg single IV bolus, male SD rats, n = 4, mean ± SD

Oc1c(Br)cc(Cl)c2cccnc12 [CLBQ14, 7-bromo-5-chloroquinolin-8-ol]
Stability at room temperature [1]: stable for up to 6 hours | Inhibition of MtMetAP1c (MtMetAP1c): potent and selective inhibitor | recovery at 2.5 ng/mL [2, 4]: 104 ± 4.72% | recovery at 400 ng/mL [2, 4]: 95.9 ± 1.89% | recovery at 800 ng/mL [2, 4]: 96.8 ± 1.25% | recovery at 14 days ([2]; Sprague Dawley, rat, Long-term stability, mean recovery ± SD): ≤ 91.3% | recovery ([2]; Sprague Dawley, rat, Mean recovery after three freeze-thaw cycles): > 95.9% | recovery at 2 h [2, 5]: 97.8 ± 1.11% | recovery at 4 h [2, 5]: 97.1 ± 5.42% | recovery at 6 h [2, 5]: 95.5 ± 6.69% | recovery at 2 h [2, 6]: 95.9 ± 1.87% | recovery at 4 h [2, 6]: 94.7 ± 4.2% | recovery at 6 h [2, 6]: 97.3 ± 5.55% | recovery at 2 h [2, 7]: 91.6 ± 4.06% | recovery at 4 h [2, 7]: 95.1 ± 3.24% | recovery at 6 h [2, 7]: 93.7 ± 1.17% | Stability at room temperature ([2]; rat plasma samples, room temperature): stable for up to 6 hours | Potency against aged non-growing Mtb (aged non-growing Mtb): increased potency | A (coefficient of distributional phase) [3, 8]: 1.39 ± 0.27 mg/L | B (coefficient of terminal phase) [3, 8]: 0.05 ± 0.00 mg/L | A (coefficient of distributional phase) [3, 9]: 3.14 ± 0.42 mg/L | B (coefficient of terminal phase) [3, 9]: 0.09 ± 0.04 mg/L | A (coefficient of distributional phase) [3, 10]: 5.09 ± 1.36 mg/L | B (coefficient of terminal phase) [3, 10]: 0.17 ± 0.07 mg/L | Administered dose excreted unchanged in urine ([3]; after 24 hr, IV bolus, male SD rats): 0.19 ± 0.04% | AUC(0-inf) ([3]; 2 mg/kg): 1360 ± 60 ng·h/mL | C0 ([3]; 2 mg/kg): 1440 ± 270 ng/mL | clearance ([3]; 2 mg/kg, Cl (total clearance), 2 mg/kg single IV bolus, male SD rats, n = 4, mean ± SD): 24.7 mL/min/kg | half-life ([3]; 2 mg/kg, T1/2α (half-life of distributional phase), 2 mg/kg single IV bolus, male SD rats, n = 4, mean ± SD): 0.16 ± 0.04 h | half-life ([3]; 2 mg/kg, T1/2β (elimination half-life of the beta elimination phase), 2 mg/kg single IV bolus, male SD rats, n = 4, mean ± SD): 14.8 ± 0.53 h | Vd ([3]; 2 mg/kg, Vss (volume of distribution at steady state), 2 mg/kg single IV bolus, male SD rats, n = 4, mean ± SD): 24.3 ± 1.28 L/kg | AUC(0-inf) ([3]; 5 mg/kg): 1960 ± 400 ng·h/mL | C0 ([3]; 5 mg/kg): 3240 ± 440 ng/mL | clearance ([3]; 5 mg/kg, Cl (total clearance), 5 mg/kg single IV bolus, male SD rats, n = 3, mean ± SD): 43.7 mL/min/kg | half-life ([3]; 5 mg/kg, T1/2α (half-life of distributional phase), 5 mg/kg single IV bolus, male SD rats, n = 3, mean ± SD): 0.17 ± 0.03 h | half-life ([3]; 5 mg/kg, T1/2β (elimination half-life of the beta elimination phase), 5 mg/kg single IV bolus, male SD rats, n = 3, mean ± SD): 10 ± 4.6 h | Vd ([3]; 5 mg/kg, Vss (volume of distribution at steady state), 5 mg/kg single IV bolus, male SD rats, n = 3, mean ± SD): 23.2 ± 11.5 L/kg | AUC(0-inf) ([3]; 10 mg/kg): 4830 ± 740 ng·h/mL | C0 ([3]; 10 mg/kg): 5270 ± 1430 ng/mL | clearance ([3]; 10 mg/kg, Cl (total clearance), 10 mg/kg single IV bolus, male SD rats, n = 4, mean ± SD): 35.2 mL/min/kg | clearance ([3]; 10 mg/kg, Estimated total plasma clearance, across the 3 groups (2, 5 and 10 mg/kg IV bolus), male SD rats): ≤ 43.7 mL/min/kg | Vd ([3]; 10 mg/kg, Steady state volume of distribution, across the 3 groups (2, 5 and 10 mg/kg IV bolus), male SD rats): ≤ 25.3 L/kg | half-life ([3]; 10 mg/kg, T1/2α (half-life of distributional phase), 10 mg/kg single IV bolus, male SD rats, n = 4, mean ± SD): 0.25 ± 0.09 h | half-life ([3]; 10 mg/kg, T1/2β (elimination half-life of the beta elimination phase), 10 mg/kg single IV bolus, male SD rats, n = 4, mean ± SD): 13.4 ± 3.59 h | Vd ([3]; 10 mg/kg, Vss (volume of distribution at steady state), 10 mg/kg single IV bolus, male SD rats, n = 4, mean ± SD): 27.3 ± 11.6 L/kg | Inhibition of MtMetAP1a (MtMetAP1a): potent and selective inhibitor | Selectivity for both MtMetAPs over human MetAPs (human MetAPs): great selectivity | Potency against replicating Mtb (replicating Mtb): great potency
